# According to article PMC6944458, “Intracellular and in vivo evaluation of imidazo[2,1-b]thiazole-5-carboxamide anti-tuberculosis compounds” (PLoS ONE, 2020):
# Like-named read-outs stand apart in the source and are kept apart here.
# Tests used:
# [1] = tested on: CYP2B6, CYP2C8, CYP2C9, CYP2C19, CYP2D6, CYP3A4; assay: in vitro; type: in vitro ADME; conditions: human; range over isoforms, >10 to >20; read-out: IC50 against all the major cytochrome P450 isoforms
# Experimental: (§1) Compounds were tested for inhibition of six cytochrome P450 enzyme isoforms—CYP2B6, CYP2C8, CYP2C9, CYP2C19, CYP2D6 and CYP3A4 [27]. For each assay, human liver microsomes were incubated with a probe substrate for each CYP isoform in the presence of compound. Compounds were prepared as a 7-point dilution series in acetonitrile:DMSO (9:1). The final DMSO content in the reaction mixture was equal in all solutions used within an assay and was < 0.2%. Samples were run in duplicate.
# [2] = tested on: M. tuberculosis Erdman; assay: Chronic Balb/c model of TB infection; type: in vivo, Balb/c mice; conditions: 200 mg/kg
# [3] = tested on: murine Raw 264.7 macrophages; conditions: mouse
# [4] = in vivo; set-up: species or system Balb/c mice
# Experimental: ND-11543 was dissolved in 20% TPGS (d-α tocopheryl polyethylene glycol 1000 succinate) to give a fine white suspension which was dosed at 100, 300 and 500 mg/kg orally on three consecutive days, 3 mice per dose group. Mice were observed 10 min, 1, 2, 4 hr after dosing and then daily afterwards. During the observations, humane handling practices and animal welfare regulations were strictly followed.
# [5] = tested on: VERO cell line; assay: Eukaryotic cytotoxicity (CellTiter-Glo); type: cell-based, African green monkey; conditions: Chlorocebus sabaeus, 48 h, 2-day incubation, read-out: VERO Toxicity IC50
# Experimental: Cytotoxicity was tested against the African green monkey adult kidney cell line (VERO, ATCC CRL-1586) as described. Compounds were tested as 10-point, 3-fold serial dilutions in DMSO (final assay concentration of 1% DMSO) and viability was measured using CellTiter-Glo (Promega). Inhibition curves were fitted using the Levenberg–Marquardt algorithm. IC50 was defined as the concentration required to reduce cell viability by 50% after 2-day incubation.
# [6] = in vitro; type: in vitro ADME; conditions: human, s9, NADPH, 37°C
# Experimental: Compounds were tested for microsomal stability using pooled human liver S9 microsomes. Microsomes were incubated with the test compound at 37°C in the presence of the co-factor NADPH. The reaction was terminated, the supernatant recovered, and test compounds quantified by LC-MS/MS. A fixed concentration of test compound was tested in duplicate at 5 timepoints and compound stability was expressed as a function of time. Human liver microsomes were purchased from Celsis (catalog number X008068).
# [7] = biological target: T1, CYP2B6 (Homo sapiens, UniProt P20813); assay: biochemical; type: in vitro ADME; conditions: human liver microsomes; read-out: Cytochrome P450 Inhibition IC50 CYP2B6
# T1 construct: human liver microsomes were incubated with a probe substrate for each CYP isoform; from tissue; host or cells: human liver microsomes
# T1 sequence (P20813 whole entry, canonical isoform): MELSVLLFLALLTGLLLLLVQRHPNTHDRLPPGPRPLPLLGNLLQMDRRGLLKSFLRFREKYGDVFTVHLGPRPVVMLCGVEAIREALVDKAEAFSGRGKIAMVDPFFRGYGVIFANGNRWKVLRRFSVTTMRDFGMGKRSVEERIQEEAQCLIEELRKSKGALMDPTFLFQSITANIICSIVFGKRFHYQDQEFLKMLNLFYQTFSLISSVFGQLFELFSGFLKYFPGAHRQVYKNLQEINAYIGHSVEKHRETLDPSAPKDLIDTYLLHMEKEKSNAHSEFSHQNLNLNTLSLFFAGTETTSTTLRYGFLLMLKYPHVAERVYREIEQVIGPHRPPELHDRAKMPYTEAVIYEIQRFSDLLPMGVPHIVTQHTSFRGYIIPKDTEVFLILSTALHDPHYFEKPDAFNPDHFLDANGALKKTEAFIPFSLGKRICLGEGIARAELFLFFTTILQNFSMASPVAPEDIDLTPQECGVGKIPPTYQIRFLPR
# Experimental: as §1
# [8] = biological target: T2, CYP3A4 (Homo sapiens, UniProt P08684); assay: biochemical; type: in vitro ADME
# T2 construct: human liver microsomes were incubated with a probe substrate for each CYP isoform; from tissue; host or cells: human liver microsomes
# T2 sequence (P08684 whole entry, canonical isoform): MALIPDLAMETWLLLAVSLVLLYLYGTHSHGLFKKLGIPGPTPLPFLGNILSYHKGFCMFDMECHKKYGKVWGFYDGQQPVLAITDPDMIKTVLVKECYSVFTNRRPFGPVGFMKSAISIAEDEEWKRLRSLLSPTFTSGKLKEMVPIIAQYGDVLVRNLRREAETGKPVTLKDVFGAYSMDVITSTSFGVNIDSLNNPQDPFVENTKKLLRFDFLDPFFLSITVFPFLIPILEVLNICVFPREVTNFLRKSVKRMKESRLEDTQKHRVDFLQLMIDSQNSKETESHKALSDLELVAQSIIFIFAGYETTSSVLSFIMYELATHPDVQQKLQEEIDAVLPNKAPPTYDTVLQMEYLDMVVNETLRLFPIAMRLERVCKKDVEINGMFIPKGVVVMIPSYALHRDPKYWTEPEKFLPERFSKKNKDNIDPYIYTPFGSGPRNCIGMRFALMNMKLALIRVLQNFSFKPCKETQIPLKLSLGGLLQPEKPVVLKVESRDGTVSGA
# Experimental: as §1
# [9] = biological target: T3, CYP2D6 (Homo sapiens, UniProt P10635); assay: biochemical; type: in vitro ADME; conditions: human liver microsomes; read-out: Cytochrome P450 Inhibition IC50 CYP2D6
# T3 construct: human liver microsomes were incubated with a probe substrate for each CYP isoform; from tissue; host or cells: human liver microsomes
# T3 sequence (P10635 whole entry, canonical isoform): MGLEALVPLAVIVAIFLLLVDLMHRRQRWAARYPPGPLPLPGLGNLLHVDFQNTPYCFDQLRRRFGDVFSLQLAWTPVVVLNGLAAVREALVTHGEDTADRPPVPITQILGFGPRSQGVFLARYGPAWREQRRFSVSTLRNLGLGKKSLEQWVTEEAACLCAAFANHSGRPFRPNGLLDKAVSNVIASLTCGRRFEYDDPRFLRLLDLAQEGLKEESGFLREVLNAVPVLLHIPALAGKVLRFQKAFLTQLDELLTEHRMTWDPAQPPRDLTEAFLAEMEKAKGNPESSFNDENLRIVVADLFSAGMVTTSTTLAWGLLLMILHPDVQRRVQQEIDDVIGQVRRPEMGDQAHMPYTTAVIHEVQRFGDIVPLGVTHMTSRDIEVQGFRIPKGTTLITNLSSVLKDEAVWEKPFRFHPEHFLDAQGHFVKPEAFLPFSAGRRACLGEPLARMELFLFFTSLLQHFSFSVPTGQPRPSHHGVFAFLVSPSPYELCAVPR
# Experimental: as §1
# [10] = biological target: T4, CYP2C19 (Homo sapiens, UniProt P33261); assay: biochemical; type: in vitro ADME; conditions: human liver microsomes; read-out: Cytochrome P450 Inhibition IC50 CYP2C19
# T4 construct: human liver microsomes were incubated with a probe substrate for each CYP isoform; from tissue; host or cells: human liver microsomes
# T4 sequence (P33261 whole entry, canonical isoform): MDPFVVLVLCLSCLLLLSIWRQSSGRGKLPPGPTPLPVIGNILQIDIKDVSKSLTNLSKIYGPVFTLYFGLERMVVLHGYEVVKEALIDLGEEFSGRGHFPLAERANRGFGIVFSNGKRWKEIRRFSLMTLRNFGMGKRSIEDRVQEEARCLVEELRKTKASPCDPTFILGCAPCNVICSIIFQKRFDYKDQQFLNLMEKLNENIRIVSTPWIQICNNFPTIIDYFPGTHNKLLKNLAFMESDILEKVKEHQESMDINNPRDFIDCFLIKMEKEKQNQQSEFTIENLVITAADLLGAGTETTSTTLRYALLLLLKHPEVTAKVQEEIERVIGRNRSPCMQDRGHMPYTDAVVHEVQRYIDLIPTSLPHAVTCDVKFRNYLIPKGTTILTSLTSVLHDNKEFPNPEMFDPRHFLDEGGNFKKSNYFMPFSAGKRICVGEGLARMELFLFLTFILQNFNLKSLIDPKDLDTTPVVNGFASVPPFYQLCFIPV
# Experimental: as §1
# [11] = biological target: T5, CYP2C9 (Homo sapiens, UniProt P11712); assay: biochemical; type: in vitro ADME; conditions: human liver microsomes; read-out: Cytochrome P450 Inhibition IC50 CYP2C9
# T5 construct: human liver microsomes were incubated with a probe substrate for each CYP isoform; from tissue; host or cells: human liver microsomes
# T5 sequence (P11712 whole entry, canonical isoform): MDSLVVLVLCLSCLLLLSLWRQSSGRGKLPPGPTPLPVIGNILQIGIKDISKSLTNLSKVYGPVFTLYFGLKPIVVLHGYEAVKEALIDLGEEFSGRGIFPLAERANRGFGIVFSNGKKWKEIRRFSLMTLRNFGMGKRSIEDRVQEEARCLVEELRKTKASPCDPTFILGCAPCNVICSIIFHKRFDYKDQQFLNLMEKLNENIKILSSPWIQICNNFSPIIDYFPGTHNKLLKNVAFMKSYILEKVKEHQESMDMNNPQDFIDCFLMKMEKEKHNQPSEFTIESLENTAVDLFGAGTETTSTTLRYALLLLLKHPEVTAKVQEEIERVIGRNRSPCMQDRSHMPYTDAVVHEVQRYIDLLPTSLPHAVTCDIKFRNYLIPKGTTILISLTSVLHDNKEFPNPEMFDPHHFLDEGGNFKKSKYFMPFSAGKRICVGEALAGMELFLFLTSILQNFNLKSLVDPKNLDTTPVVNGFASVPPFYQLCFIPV
# Experimental: as §1
# [12] = biological target: T6, CYP2C8 (Homo sapiens, UniProt P10632); assay: biochemical; type: in vitro ADME; conditions: human liver microsomes; read-out: Cytochrome P450 Inhibition IC50 CYP2C8
# T6 construct: human liver microsomes were incubated with a probe substrate for each CYP isoform; from tissue; host or cells: human liver microsomes
# T6 sequence (P10632 whole entry, canonical isoform): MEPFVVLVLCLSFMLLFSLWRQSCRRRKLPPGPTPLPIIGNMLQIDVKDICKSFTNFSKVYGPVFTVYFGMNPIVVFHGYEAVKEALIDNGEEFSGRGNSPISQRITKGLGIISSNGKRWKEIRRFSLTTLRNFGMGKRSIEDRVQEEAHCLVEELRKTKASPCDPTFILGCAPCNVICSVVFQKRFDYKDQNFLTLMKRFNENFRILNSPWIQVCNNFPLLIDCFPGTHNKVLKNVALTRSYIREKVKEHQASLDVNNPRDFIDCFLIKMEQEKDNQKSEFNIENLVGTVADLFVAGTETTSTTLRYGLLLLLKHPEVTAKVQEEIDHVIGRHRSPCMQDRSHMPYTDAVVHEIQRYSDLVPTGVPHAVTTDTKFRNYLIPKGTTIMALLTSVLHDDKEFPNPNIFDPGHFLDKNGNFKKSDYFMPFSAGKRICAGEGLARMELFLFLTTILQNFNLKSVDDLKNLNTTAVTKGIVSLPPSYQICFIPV
# Experimental: as §1
# [13] = tested on: M. tuberculosis GC1237 (Mtb-GFP) in Raw 264.7 macrophages; assay: Intracellular mycobacterial replication assay in macrophages; type: cell-based; conditions: Mycobacterium tuberculosis, 120 h, 5 days, read-out: MIC, intracellular M. tuberculosis growth in macrophages
# [14] = Single dose plasma PK; type: in vivo, Balb/c mice
# Experimental: Basic pharmacokinetic analysis was determined after a single dose of 200 mg/kg with and without the administration of 100 mg/kg of 1-aminobenzotriazole (ABT) (Sigma, #A3940) given 2 hr by gavage prior to ND-11543 administration. ABT (100 mg/kg dose) was administered by oral gavage in 0.5% (w/v) methyl cellulose 400 solution. ND-11543 (200 mg/kg dose) was prepared in 20% TPGS and dosed orally 2 hr after ABT administration. Female mice (6–8 week old Balb/c from Charles River) were rested one to two weeks before dosing. Blood was collected from the mice at time points of 0.5, 2, 4, 8, 12 and 24 hr after drug administration. Blood samples (< 100 μL each) for all time points were collected via the mandibular vein in plasma collector tubes, centrifuged and plasma (< 50 μL each) was frozen until further use. Plasma samples were analyzed by LC/MS to determine drug plasma levels.
# [15] = tested on: M. tuberculosis strain H37Rv-LUX; assay: microbe, parasite or virus in culture; type: cell-based; conditions: Mycobacterium tuberculosis, read-out: LORA MIC
# [16] = in vitro; conditions: human, Caco-2
# [17] = Relative solubility by turbidity in microbiological medium; conditions: pH 6.8, aqueous buffer, kinetic from dmso stock, lowest concentration at which compound was insoluble (turbidity)
# Experimental: The relative solubility of compounds was determined in microbiological medium using turbidity as a measure [27]. A serial dilution of compounds was prepared in DMSO and then transferred to microbiological medium at pH 6.8.
# [18] = tested on: H37Rv-Mtb; assay: MIC against replicating H37Rv-Mtb in liquid media; type: cell-based, Mycobacterium tuberculosis; conditions: Mycobacterium tuberculosis, H37RV, 120 h, replicating, 5 days, OD590
smiles,measurement,setting,value
"Cc1cn2c(C(=O)NCc3ccc(N4CCN(c5ccc(C(F)(F)F)cn5)CC4)c(F)c3)c(C)nc2s1 [ND-11543, N-(3-fluoro-4-(4-(5-(trifluoromethyl)pyridin-2-yl)piperazin-1-yl)benzyl)-2,6-dimethylimidazo[2,1-b]thiazole-5-carboxamide]",IC50,[1],> 10 µM
same,Log reduction vs Control (Lung),"[2]; 4 weeks, without ABT",0.30 log10 CFU
same,Log reduction vs Control (Spleen),"[2]; 4 weeks, without ABT",0.36 log10 CFU
same,Lung Log10 CFU ±SEM,"[2]; ERDMAN, 672 h",5.49 ± 0.08 Log10 CFU
same,Spleen Log10 CFU ±SEM,"[2]; ERDMAN, 672 h",4.64 ± 0.11 Log10 CFU
same,Macrophage toxicity concentration relative to MIC,[3],4 and 8-fold higher than their MIC
same,MTD,"[4]; female, Balb/c, mouse, in vivo, mice, oral, three consecutive daily doses, read-out: Maximum Tolerated Dose, MTD",> 500 mg/kg
same,Acute toxicity observation,"[4]; mice, 100, 300 and 500 mg/kg oral",No acute toxicity was observed
same,IC50,[5],> 50 µM
same,microsomal CLint,[6]; read-out: Human liver S9 Microsomes CL,81.3 µL/min/mg
same,half-life,[6]; read-out: Human liver S9 Microsomes T ½,28.4 min
same,IC50,[7],> 20 µM
same,IC50,"[8]; DDI assay including midazolam, read-out: Cytochrome P450 Inhibition IC50 CYP3A4 (midazolam)",> 20 µM
same,IC50,"[8]; DDI assay including tetosterone, read-out: Cytochrome P450 Inhibition IC50 CYP3A4 (tetosterone)",> 20 µM
same,IC50,[9],> 20 µM
same,IC50,[10],> 20 µM
same,IC50,[11],10.2 µM
same,IC50,[12],18.4 µM
same,MIC,[13],0.0625 µM
same,AUC(0–24)/Dose,"[14]; 200 mg/kg oral, without ABT",58.5 ng·h/mL/mg/kg
same,Cmax/Dose,"[14]; 200 mg/kg oral, without ABT",3.22 ng/mL/mg/kg
same,Relative Bioavailability [(TA+ABT) / TA],"[14]; female, Balb/c, mouse, in vivo",318.25
same,half-life,"[14]; female, Balb/c, mouse, plasma, 200 mg/kg oral, without ABT",> 1440 min
same,MIC,[15],1.1 µM
same,Papp A→B at 1 h,[16],0.376 ×10⁻⁶ cm/s
same,Papp A→B at 2 h,[16],0.731 ×10⁻⁶ cm/s
same,Papp B→A at 1 h,[16],1.09 ×10⁻⁶ cm/s
same,Papp B→A at 2 h,[16],0.758 ×10⁻⁶ cm/s
same,efflux ratio,[16],2.23
same,solubility,[17],50 µM
same,MIC,[18],0.008 µM
